Earlier results as cited in patent US9629818B2, “Pharmaceutical composition of tapentadol for parenteral administration” (TORRENT PHARMACEUTICALS LTD, priority 2012, dated 2017).

How the values were obtained:
[1] = given orally
[2] = in vivo

CC[C@@H](c1cccc(O)c1)[C@@H](C)CN(C)C [tapentadol, (−)-(1R,2R)-3-(3-dimethylamino-1-ethyl-2-methyl-propyl)-phenol]
parent compound metabolized [1]: About 97%
duration of analgesic effect [2]: ≤ 12 h
